Reference: ChEMBL document CHEMBL3046126, “Synthesis and Herbicidal Activity of New Oxazolidinedione Derivatives” (J Pestic Sci, 1999)

Legend:
Echinochloa oryzicola [1] = experiment: Pre-emergence herbicidal activity against Echinochloa oryzicola assessed as phytotoxic weed control visual ratings measured after 14 days post treatment; format: functional
Elatine triandra [2] = experiment: Pre-emergence herbicidal activity against Elatine triandra assessed as phytotoxic weed control visual ratings at 25 g ai/ha measured after 14 days post treatment under flooded conditions; format: functional
Oryza sativa [3] = experiment: Pre-emergence phytotoxicity against Oryza sativa cv. Koshihikari (rice) assessed as phytotoxic crop injury visual ratings at 25 g ai/ha measured after 14 days post treatment under flooded conditions; format: organism-based; settings: in vivo, other, 336 h
Rotala indica [4] = experiment: Pre-emergence herbicidal activity against Rotala indica assessed as phytotoxic weed control visual ratings at 25 g ai/ha measured after 14 days post treatment under flooded conditions; format: functional
[5] = Selectivity index, ratio of ED10 for Oryza sativa to ED90 for Echinochloa oryzicola by pre-emergence exposure method
Lindernia procumbens [6] = experiment: Pre-emergence herbicidal activity against Lindernia procumbens assessed as phytotoxic weed control visual ratings at 25 g ai/ha measured after 14 days post treatment under flooded conditions; format: functional
Amaranthus viridis = experiment: Pre-emergence herbicidal activity against Amaranthus viridis assessed as phytotoxic weed control visual ratings at 500 g ai/ha measured after 14 days post treatment under upland field conditions; format: functional
Oryza sativa [7] = experiment: Post-emergence phytotoxicity against Oryza sativa cv. Koshihikari (rice) assessed as phytotoxic crop injury visual ratings measured after 14 days post treatment; format: organism-based; settings: in vivo, 336 h
Echinochloa oryzicola [8] = experiment: Pre-emergence herbicidal activity against Echinochloa oryzicola assessed as phytotoxic weed control visual ratings at 25 g ai/ha measured after 14 days post treatment under flooded conditions; format: functional
Echinochloa crus-galli [9] = experiment: Pre-emergence herbicidal activity against Echinochloa crus-galli (barnyard grass) assessed as phytotoxic weed control visual ratings at 500 g ai/ha measured after 14 days post treatment under upland field conditions; format: functional
Chenopodium album = experiment: Pre-emergence herbicidal activity against Chenopodium album assessed as phytotoxic weed control visual ratings at 500 g ai/ha measured after 14 days post treatment under upland field conditions; format: functional
Pontederia vaginalis [10] = experiment: Pre-emergence herbicidal activity against Monochoria vaginalis assessed as phytotoxic weed control visual ratings at 25 g ai/ha measured after 14 days post treatment under flooded conditions; format: functional
Oryza sativa [11] = experiment: Pre-emergence phytotoxicity against Oryza sativa cv. Koshihikari (rice) assessed as phytotoxic crop injury visual ratings measured after 14 days post treatment; format: organism-based; settings: in vivo, 336 h
Cyperus difformis [12] = experiment: Pre-emergence herbicidal activity against Cyperus difformis assessed as phytotoxic weed control visual ratings at 25 g ai/ha measured after 14 days post treatment under flooded conditions; format: functional
Digitaria ciliaris = experiment: Pre-emergence herbicidal activity against Digitaria ciliaris assessed as phytotoxic weed control visual ratings at 500 g ai/ha measured after 14 days post treatment under upland field conditions; format: functional
Echinochloa oryzicola [13] = experiment: Post-emergence herbicidal activity against Echinochloa oryzicola assessed as phytotoxic weed control visual ratings measured after 14 days post treatment; format: functional
[14] = test system: Schoenoplectiella juncoides; experiment: Pre-emergence herbicidal activity against Schoenoplectiella juncoides assessed as phytotoxic weed control visual ratings at 25 g ai/ha measured after 14 days post treatment under flooded conditions; format: functional
Zea mays = experiment: Pre-emergence phytotoxicity against Zea mays (maize) assessed as phytotoxic crop injury visual ratings at 500 g ai/ha measured after 14 days post treatment under upland field conditions; format: organism-based; settings: in vivo, other, 336 h
[15] = Selectivity index, ratio of ED10 for Oryza sativa to ED90 for Echinochloa oryzicola by post-emergence exposure method
Pontederia vaginalis [16] = experiment: Early post-emergence herbicidal activity against Monochoria vaginalis assessed as phytotoxic weed control visual ratings at 50 kg ai/ha measured after 14 days post treatment under flooded conditions; format: functional
Echinochloa crus-galli [17] = experiment: Early post-emergence herbicidal activity against Echinochloa crus-galli (barnyard grass) assessed as phytotoxic weed control visual ratings at 50 kg ai/ha measured after 14 days post treatment under flooded conditions; format: functional
Ammannia multiflora = experiment: Early post-emergence herbicidal activity against Ammannia multiflora assessed as phytotoxic weed control visual ratings at 50 kg ai/ha measured after 14 days post treatment under flooded conditions; format: functional
Pontederia vaginalis [18] = experiment: Pre-emergence herbicidal activity against Monochoria vaginalis assessed as phytotoxic weed control visual ratings at 1.25 kg ai/ha measured after 14 days post treatment under flooded conditions; format: functional
Rotala indica [19] = experiment: Pre-emergence herbicidal activity against Rotala indica assessed as phytotoxic weed control visual ratings at 1.25 kg ai/ha measured after 14 days post treatment under flooded conditions; format: functional
Lindernia procumbens [20] = experiment: Pre-emergence herbicidal activity against Lindernia procumbens assessed as phytotoxic weed control visual ratings at 1.25 kg ai/ha measured after 14 days post treatment under flooded conditions; format: functional
Oryza sativa [21] = experiment: Pre-emergence phytotoxicity against Oryza sativa cv. Koshihikari (rice) assessed as induction of leaf sheath browning at 2.5 kg ai/ha measured after 14 days post treatment under flooded conditions; format: organism-based; settings: in vivo, other, 336 h
Lindernia procumbens [22] = experiment: Pre-emergence herbicidal activity against Lindernia procumbens assessed as phytotoxic weed control visual ratings at 2.5 kg ai/ha measured after 14 days post treatment under flooded conditions; format: functional
Oryza sativa [23] = experiment: Pre-emergence phytotoxicity against Oryza sativa cv. Koshihikari (rice) assessed as phytotoxic crop injury visual ratings at 2.5 kg ai/ha measured after 14 days post treatment under flooded conditions; format: organism-based; settings: in vivo, other, 336 h
Rotala indica [24] = experiment: Pre-emergence herbicidal activity against Rotala indica assessed as phytotoxic weed control visual ratings at 2.5 kg ai/ha measured after 14 days post treatment under flooded conditions; format: functional
[25] = test system: Schoenoplectiella juncoides; experiment: Pre-emergence herbicidal activity against Schoenoplectiella juncoides assessed as phytotoxic weed control visual ratings at 2.5 kg ai/ha measured after 14 days post treatment under flooded conditions; format: functional
[26] = test system: Schoenoplectiella juncoides; experiment: Pre-emergence herbicidal activity against Schoenoplectiella juncoides assessed as phytotoxic weed control visual ratings at 1.25 kg ai/ha measured after 14 days post treatment under flooded conditions; format: functional
Elatine triandra [27] = experiment: Pre-emergence herbicidal activity against Elatine triandra assessed as phytotoxic weed control visual ratings at 1.25 kg ai/ha measured after 14 days post treatment under flooded conditions; format: functional
Elatine triandra [28] = experiment: Pre-emergence herbicidal activity against Elatine triandra assessed as phytotoxic weed control visual ratings at 2.5 kg ai/ha measured after 14 days post treatment under flooded conditions; format: functional
Pontederia vaginalis [29] = experiment: Pre-emergence herbicidal activity against Monochoria vaginalis assessed as phytotoxic weed control visual ratings at 2.5 kg ai/ha measured after 14 days post treatment under flooded conditions; format: functional
Echinochloa oryzicola [30] = experiment: Pre-emergence herbicidal activity against Echinochloa oryzicola assessed as phytotoxic weed control visual ratings at 2.5 kg ai/ha measured after 14 days post treatment under flooded conditions; format: functional
Cyperus difformis [31] = experiment: Pre-emergence herbicidal activity against Cyperus difformis assessed as phytotoxic weed control visual ratings at 1.25 kg ai/ha measured after 14 days post treatment under flooded conditions; format: functional
Cyperus difformis [32] = experiment: Pre-emergence herbicidal activity against Cyperus difformis assessed as phytotoxic weed control visual ratings at 2.5 kg ai/ha measured after 14 days post treatment under flooded conditions; format: functional
Oryza sativa [33] = experiment: Pre-emergence phytotoxicity against Oryza sativa cv. Koshihikari (rice) assessed as phytotoxic crop injury visual ratings at 1.25 kg ai/ha measured after 14 days post treatment under flooded conditions; format: organism-based; settings: in vivo, other, 336 h
Echinochloa oryzicola [34] = experiment: Pre-emergence herbicidal activity against Echinochloa oryzicola assessed as phytotoxic weed control visual ratings at 1.25 kg ai/ha measured after 14 days post treatment under flooded conditions; format: functional

SMILES | ED90 (Echinochloa oryzicola [1]) [gAi/ha] | Phytotoxicity (Elatine triandra [2]) [%] | Phytotoxicity (Oryza sativa [3]) [%] | Phytotoxicity (Rotala indica [4]) [%] | Selectivity Index [5] | Phytotoxicity (Lindernia procumbens [6]) [%] | Phytotoxicity (Amaranthus viridis) [%] | ED10 (Oryza sativa [7]) [gAi/ha] | Phytotoxicity (Echinochloa oryzicola [8]) [%] | Phytotoxicity (Echinochloa crus-galli [9]) [%] | Phytotoxicity (Chenopodium album) [%] | Phytotoxicity (Pontederia vaginalis [10]) [%] | ED10 (Oryza sativa [11]) [gAi/ha] | Phytotoxicity (Cyperus difformis [12]) [%] | Phytotoxicity (Digitaria ciliaris) [%] | ED90 (Echinochloa oryzicola [13]) [gAi/ha] | Phytotoxicity [14] [%] | Phytotoxicity (Zea mays) [%] | Selectivity Index [15] | further results
CC(C)=C1OC(=O)N(c2cc(OC3CCCC3)c(Cl)cc2F)C1=O [PENTOXAZONE] | 12.5 | 100 | 0 | 100 | 16 | 100 | 100 | 400 | 100 | 60 | 50 | 100 | 200 | 100 | 90 | 25 | 100 | 10 | 16 | –
CC(C)=C1OC(=O)N(c2cc(OC3CCCCC3)c(Cl)cc2F)C1=O | 25 | 100 | 0 | 100 | 8 | 100 | 30 | 200 | 100 | 10 | 20 | 100 | 200 | 100 | 30 | 25 | 80 | 10 | 8 | –
C=CCOc1cc(N2C(=O)OC(=C(C)C)C2=O)c(F)cc1Cl | 50 | 100 | 0 | 100 | 1 | 100 | 80 | 100 | 80 | 30 | 70 | 100 | 50 | 100 | 90 | 100 | 90 | 10 | 1 | –
C#CCOc1cc(N2C(=O)OC(=C(C)C)C2=O)c(F)cc1Br | – | – | – | – | – | – | – | – | – | – | – | – | – | – | – | – | – | – | – | Phytotoxicity (Pontederia vaginalis [16]): 100%; Phytotoxicity (Echinochloa crus-galli [17]): 80%; Phytotoxicity (Ammannia multiflora): 100%
CC(C)=C1OC(=O)N(c2cc(OC(C)C)c(Cl)cc2F)C1=O | 25 | 100 | 0 | 100 | 4 | 100 | 100 | 150 | 100 | 90 | 100 | 100 | 100 | 100 | 100 | 25 | 90 | 10 | 6 | –
CC(C)=C1OC(=O)N(c2ccc(Cl)cc2)C1=O | – | – | – | – | – | – | – | – | – | – | – | – | – | – | – | – | – | – | – | Phytotoxicity (Pontederia vaginalis [18]): 100%; Phytotoxicity (Rotala indica [19]): 100%; Phytotoxicity (Lindernia procumbens [20]): 100%; Activity (Oryza sativa [21]): Toxic; Phytotoxicity (Lindernia procumbens [22]): 100%; Phytotoxicity (Oryza sativa [23]): 30%; Phytotoxicity (Rotala indica [24]): 100%; Phytotoxicity [25]: 100%; Phytotoxicity [26]: 100%; Phytotoxicity (Elatine triandra [27]): 100%; Phytotoxicity (Elatine triandra [28]): 100%; Phytotoxicity (Pontederia vaginalis [29]): 100%; Phytotoxicity (Echinochloa oryzicola [30]): 100%; Phytotoxicity (Cyperus difformis [31]): 100%; Phytotoxicity (Cyperus difformis [32]): 100%; Phytotoxicity (Oryza sativa [33]): 10%; Phytotoxicity (Echinochloa oryzicola [34]): 90%
C#CCOc1cc(N2C(=O)OC(=C(C)C)C2=O)c(F)cc1Cl | 3.13 | 100 | 30 | 100 | 2 | 100 | 100 | 25 | 100 | 80 | 100 | 100 | 6.25 | 100 | 100 | 12.5 | 100 | 10 | 2 | Phytotoxicity (Pontederia vaginalis [16]): 100%; Phytotoxicity (Echinochloa crus-galli [17]): 100%; Phytotoxicity (Ammannia multiflora): 100%
CC(C)=C1OC(=O)N(c2ccc(Cl)c(Cl)c2)C1=O | – | – | – | – | – | – | – | – | – | – | – | – | – | – | – | – | – | – | – | Activity (Oryza sativa [21]): Toxic; Phytotoxicity (Lindernia procumbens [22]): 100%; Phytotoxicity (Oryza sativa [23]): 10%; Phytotoxicity (Rotala indica [24]): 100%; Phytotoxicity [25]: 80%; Phytotoxicity (Elatine triandra [28]): 100%; Phytotoxicity (Pontederia vaginalis [29]): 80%; Phytotoxicity (Echinochloa oryzicola [30]): 10%; Phytotoxicity (Cyperus difformis [32]): 100%
C#CCOc1cc(N2C(=O)OC(=C(C)C)C2=O)c(Cl)cc1Cl | – | – | – | – | – | – | – | – | – | – | – | – | – | – | – | – | – | – | – | Phytotoxicity (Pontederia vaginalis [16]): 100%; Phytotoxicity (Echinochloa crus-galli [17]): 90%; Phytotoxicity (Ammannia multiflora): 90%
C#CCSc1cc(N2C(=O)OC(=C(C)C)C2=O)c(F)cc1Cl | 12.5 | 100 | 0 | 100 | 4 | 100 | 100 | 200 | 100 | 50 | 100 | 100 | 50 | 100 | 30 | 100 | 100 | 0 | 2 | –
CC(C)Oc1cc(-n2nc(C(C)(C)C)oc2=O)c(Cl)cc1Cl [OXADIAZON] | 25 | 100 | 0 | 100 | 8 | 100 | 100 | 400 | 90 | 100 | 100 | 100 | 200 | 100 | 100 | 50 | 100 | 40 | 8 | –
CC(C)=C1OC(=O)N(c2ccc(Cl)cc2Cl)C1=O | – | – | – | – | – | – | – | – | – | – | – | – | – | – | – | – | – | – | – | Activity (Oryza sativa [21]): Toxic; Phytotoxicity (Lindernia procumbens [22]): 100%; Phytotoxicity (Oryza sativa [23]): 20%; Phytotoxicity (Rotala indica [24]): 100%; Phytotoxicity [25]: 100%; Phytotoxicity (Elatine triandra [28]): 100%; Phytotoxicity (Pontederia vaginalis [29]): 100%; Phytotoxicity (Echinochloa oryzicola [30]): 100%; Phytotoxicity (Cyperus difformis [32]): 100%
